Measurements reported in US20260325485A1, “COMPOSITIONS AND METHODS FOR TREATING PANCREATITIS” (The United States Government as represented by the …, priority 2022, published 2026).

Assays:
[1] = tested on: neutral lipids; experiment: BODIPY 493/503 staining of neutral lipids in acinar cells; type: cell-based, mouse; settings: BafA1 20 nM
Experimental: FIGS. 13A-13G show neutral lipids accumulate in LE/Ly and autophagic compartments of Gnptab^−/− pancreas. Characteristics of neutral lipid metabolism were measured in (A-C,F,G) pancreatic tissue of WT, Gnptab^−/− (KO) and Atg5^Δpan mice, and (D,E) WT and KO acinar cells treated with Bafilomycin A1 (BafA1; 20 nM). (A) EM showing lipid inclusions in KO pancreas. (B-E) Tissue or cells were stained with BODIPY 493/503 for neutral lipids; BODIPY fluorescence intensity was quantified with Volocity software, normalized to the number of nuclei (DAPI) in the field, and expressed relative to WT control. […] (F,G) Perilipins (PLINs) were analyzed by immunoblot; their band intensities were densitometrically quantified, normalized to GAPDH in the same sample and, further, to WT. […] Significance was determined by 2-tailed Student's t test (G) or 1-way ANOVA followed by Tukey's multiple comparisons test (C,E). […]
All fluorescence images were acquired with a Zeiss LSM710 confocal microscope using x63 objective and preset within-experiment image acquisition settings. Quantitative fluorescence analysis was performed with Volocity software (PerkinElmer). Overlap between 2 fluorescent labels was measured using Manders-Costes coefficient. Pearson's colocalization coefficient was calculated if both immunolabeled proteins had the same (e.g. “dotted”) staining pattern.

[2] = tested on: trypsin; experiment: Trypsin activity in Gnptab−/− acinar cells; type: cell-based, mouse; settings: 3 hours; 50 μM CA-074Me or 20 nM BafA1
Experimental: FIGS. 6A-6R show mechanisms mediating increased trypsin activity in Gnptab−/− pancreas. Trypsin activity and its regulation were analyzed in pancreatic (A, C, and D) tissue, (B and P-R) acinar cells, (E-H and O) lobules, and (I-N) subcellular fractions. In B, acinar cells were incubated for 3 hours without and with 20 nM BafAl or 50 μM CatB inhibitor CA-074Me; in P-R, with the cholesterol chelator methyl-β-cyclodextrin (MCD) at the indicated concentrations. In E-H, pancreatic lobules were double stained for TAP and LC3 or LAMP2; in O, for TAP and filipin. Quantitative colocalization analysis was done as detailed in FIG. 2. Each symbol in A, B, J-N, Q, and R represents an individual mouse or cell preparation (n=3-8 per condition). Each symbol in D, G, and H corresponds to 20 to 30 cells in a different field (n=9-20 fields from 3 WT and 3 KO mice or lobule preparations). Values are mean±SEM. **P<0.01, ***P<0.001 vs. WT tissue/lobules (A, G, and H) or corresponding WT subcellular fraction (K and M). ##P<0.01 vs. no inhibitors (B) or MCD (Q and R). ††P<0.01, †††P<0.001 vs. the other two fractions (L and N). Significance was determined by 2-tailed Student's t test (A, G, and H) or 1-way ANOVA followed by Tukey's multiple comparison test (B, K-N, Q, and R). Scale bars: 10 μm.
Activities of cathepsin (Cat) B and L, caspase-3, trypsin, and lysosomal acid lipase (LAL) were measured in pancreatic tissue or cell homogenates and subcellular fractions with fluorogenic assays using substrates specific for CatB (Z-Arg-Arg-AMC), CatL (Z-Phe-Arg-AMC), caspase-3-like ([…]), trypsin (Boc-Gln-Ala-Arg-AMC), as previously described (1-4, 6, 7); and for LAL (4-methylumbelliferyl oleate), as in (17). In measurements of CatL activity, the assay buffer also contained 50 μM CA-074me, a CatB inhibitor. LAL activity was measured in the absence and presence of the LAL inhibitor lalistat (100 μM) as the difference between these values (17).

[3] = tested on: LC3-II; experiment: Autophagic flux analysis: LC3-II immunoblot in pancreatic acinar cells; type: cell-based, mouse; settings: 30 minutes
Experimental: FIGS. 2A-2L show Gnptab ablation stimulates autophagosome formation and blocks autophagic flux in pancreatic acinar cells. Parameters of autophagy were measured in WT and […] pancreatic (A-C) acinar cells and (D-L) tissue. (A-C) Acinar cells incubated for 30 minutes with and without bafilomycin A1 (BafA1; 20 nM); LC3-II band intensity was quantified by densitometry, normalized to ERK in the same sample, and LC3-II/ERK ratios further normalized to untreated WT cells (control). Values are mean±SEM; each symbol represents an individual cell preparation (n=4-6 per condition). sP<0.05; paired 2-tailed Student's t test. (D) IB analysis of autophagic markers/mediators. Ub, ubiquitylated proteins. (E-K) Immunofluorescence colocalization analysis for LC3 and LAMP1 (E, G, and H), and LC3 and Stx17 (F and I-K) in WT and KO pancreas. In this and other figures, colocalization was quantified with Volocity software using Manders-Costes (percentage colocalization) and Pearson's coefficients. Values are mean±SEM; each symbol corresponds to 20 to 30 cells in a different field (n=6-9 fields from 3 mice per condition). ***P<0.001 vs. WT; 2-tailed Student's t test. (L). EM showing abnormally large autolysosomes with partially degraded material in pancreas of KO mice. Scale bars: 10 μm (E and F) and 3 μm (L).
To further assess the effects of Gnptab KO on autophagy, autophagic flux analysis was performed by measuring changes in LC3-II in acinar cells incubated with and without the lysosomal v-ATPase inhibitor, bafilomycin A1 (BafA1) (FIG. 2, A-C). The number of autophagic vacuoles in a cell is a net balance between autophagosome formation and their degradation through autophagic flux. Thus, the increase in LC3-II observed in KO pancreas (FIG. 1F and FIG. 2D; see also FIG. 17G) could have resulted from both induction of autophagosome formation and the inhibition of flux. […]
Immunoblots were developed using enhanced chemiluminescence detection kit (Pierce), and band intensities were quantified by densitometry using FluorChem HD2 imaging system (Alpha Innotech/ProteinSimple).

[4] = tested on: pancreas; experiment: Pancreatic total cholesterol and lipids in acute pancreatitis models in WT mice; type: in vivo, mouse; settings: Arg-AP, CER-AP or CDE-AP
Experimental: FIGS. 8A-8M show derangement of cholesterol metabolism in experimental pancreatitis. Characteristics of cholesterol metabolism were measured, as detailed in FIGS. 4A-4R, in pancreas of WT mice subjected to pancreatitis induced with cerulein (CER-AP), L-arginine (Arg-AP), or CDE diet (CDE-AP) (A, B, and E-G); ex vivo pancreatitis induced in WT mouse (C and I-M) or human acinar cells (D) with 100 nM CCK (CCK-AP) or 1 mM carbachol; and isolated pancreatic mitochondria (H). (B) Cholesterol ester (CE) heatmap; each column represents an individual mouse. (F) IB analysis of the indicated proteins. (G) LAL activity was measured by a fluorogenic assay (n=6 mice per condition). (H) Cholesterol content was measured by enzymatic assay. (I-M) Filipin colocalization with indicated proteins was quantified as detailed in FIGS. 2A-2L. Each symbol in A, C-E, and H represents an individual mouse, or cell or mitochondria preparation (n=3-15 per condition). Each symbol in J, K, and M corresponds to 20-30 cells in a different field (n=10-20 fields from 3 cell preparations per condition). Values are mean±SEM. *P<0.05, **P<0.01, ***P<0.001 vs. the same parameter in control/untreated pancreas, acinar cells or isolated mitochondria. Significance was determined by 2-tailed Student's t test (B, E, H, J, K, and M) or 1-way ANOVA followed by Tukey's multiple comparison test (A, C, and D). Scale bars: 10 μm.
Parameters of cholesterol metabolism were measured in (A, B, E, F) pancreas of mice subjected to pancreatitis induced with cerulean (CER-AP), L-arginine (Arg-AP), or combination of EtOH+palmitoleic acid (EtOH+POA); and (C) ex-vivo models on mouse and human acinar cells treated for 1 h with 100 nM CCK, […] or 500 μM TLCS. […] (B, C) Total cholesterol content was measured with cholesterol assay kit (Abcam, ab65390). […] Signficance was determined by 2-tailed student's t test. […]
Total cholesterol content was measured with Cholesterol Assay kit per manufacturer's instructions. […]
Triglycerides (TAG) content was measured using Triglyceride Assay kit. […]

SMILES: CO/C1=C\C(C)=C\[C@@H](C)[C@@H](O)[C@@H](C)C/C(C)=C/C=C/[C@H](OC)[C@@H]([C@@H](C)[C@@H](O)[C@H](C)[C@@]2(O)C[C@@H](O)[C@H](C)[C@@H](C(C)C)O2)OC1=O [BafA1, bafilomycin A1]
- BODIPY staining, KO ([1]; Gnptab−/− acinar cells): no additional effect
- BODIPY staining increase, WT ([1]; WT acinar cells): approximately 3 fold
- Reduction of trypsin activity, Gnptab−/− acinar cells [2]: by half
- LC3-II levels in KO compared with WT in presence of BafA1 ([3]; BafA1 20 nM, Gnptab−/− vs WT acinar cells): approximately 11 fold
- LC3-II increase by BafA1, KO ([3]; Gnptab−/− (KO) acinar cells, 20 nM): no increase
- LC3-II increase by BafA1, WT ([3]; WT acinar cells, 20 nM): approximately 4 fold

SMILES: N=C(N)NCCC[C@H](N)C(=O)O [L-arginine]
- pancreatic total cholesterol, AP models [4]: increases
